# In PubChem BioAssay (NCI):
#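 Method: 48-hour compound exposure of cells in 96-well plates, five concentrations, linear interpolation of endpoints. GI50 is the concentration that inhibits growth by half. TGI: concentration producing complete growth inhibition.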
# What was measured:
# Test in all cases: NCI anticancer screen, dose series, 48 h
# 786-0 renal = tested on: 786-0 renal
# A498 renal = tested on: A498 renal
# A549 NSCLC = tested on: A549 NSCLC
# ACHN renal = tested on: ACHN renal
# BT-549 breast = tested on: BT-549 breast
# CAKI-1 renal = tested on: CAKI-1 renal
# CCRF-CEM leukemia = tested on: CCRF-CEM leukemia
# COLO 205 colon = tested on: COLO 205 colon
# DU-145 prostate = tested on: DU-145 prostate
# EKVX NSCLC = tested on: EKVX NSCLC
# HCC-2998 colon = tested on: HCC-2998 colon
# HCT-116 colon = tested on: HCT-116 colon
# HCT-15 colon = tested on: HCT-15 colon
# HL-60(TB) leukemia = tested on: HL-60(TB) leukemia
# HOP-62 NSCLC = tested on: HOP-62 NSCLC
# HOP-92 NSCLC = tested on: HOP-92 NSCLC
# HS 578T breast = tested on: HS 578T breast
# HT29 colon = tested on: HT29 colon
# IGROV1 ovarian = tested on: IGROV1 ovarian
# K-562 leukemia = tested on: K-562 leukemia
# KM12 colon = tested on: KM12 colon
# LOX IMVI melanoma = tested on: LOX IMVI melanoma
# M14 melanoma = tested on: M14 melanoma
# MALME-3M melanoma = tested on: MALME-3M melanoma
# MCF7 breast = tested on: MCF7 breast
# MDA-MB-231 breast = tested on: MDA-MB-231 breast
# MDA-MB-435 = tested on: MDA-MB-435
# MDA-MB-468 breast = tested on: MDA-MB-468 breast
# MOLT-4 leukemia = tested on: MOLT-4 leukemia
# NCI-H226 lung = tested on: NCI-H226 lung
# NCI-H23 lung = tested on: NCI-H23 lung
# NCI-H460 lung = tested on: NCI-H460 lung
# NCI-H522 lung = tested on: NCI-H522 lung
# NCI/ADR-RES ovarian = tested on: NCI/ADR-RES ovarian
# OVCAR-3 ovarian = tested on: OVCAR-3 ovarian
# OVCAR-4 ovarian = tested on: OVCAR-4 ovarian
# OVCAR-5 ovarian = tested on: OVCAR-5 ovarian
# OVCAR-8 ovarian = tested on: OVCAR-8 ovarian
# PC-3 prostate = tested on: PC-3 prostate
# RPMI-8226 leukemia = tested on: RPMI-8226 leukemia
# RXF 393 renal = tested on: RXF 393 renal
# SF-268 CNS = tested on: SF-268 CNS
# SF-295 CNS = tested on: SF-295 CNS
# SF-539 CNS = tested on: SF-539 CNS
# SK-MEL-2 melanoma = tested on: SK-MEL-2 melanoma
# SK-MEL-28 melanoma = tested on: SK-MEL-28 melanoma
# SK-MEL-5 melanoma = tested on: SK-MEL-5 melanoma
# SK-OV-3 ovarian = tested on: SK-OV-3 ovarian
# SN12C renal = tested on: SN12C renal
# SNB-19 CNS = tested on: SNB-19 CNS
# SNB-75 CNS = tested on: SNB-75 CNS
# SR leukemia = tested on: SR leukemia
# SW-620 colon = tested on: SW-620 colon
# T-47D breast = tested on: T-47D breast
# TK-10 renal = tested on: TK-10 renal
# U251 CNS = tested on: U251 CNS
# UACC-257 melanoma = tested on: UACC-257 melanoma
# UACC-62 melanoma = tested on: UACC-62 melanoma
# UO-31 renal = tested on: UO-31 renal
smiles,measurement,setting,value
COc1ccc(/C=C/c2nc3ccccc3n3c(-c4cccc([N+](=O)[O-])c4)nnc23)cc1,GI50,786-0 renal,1450 nM
same,TGI,786-0 renal,2760 nM
same,GI50,A498 renal,12400 nM
same,TGI,A498 renal,28100 nM
same,GI50,A549 NSCLC,2650 nM
same,TGI,A549 NSCLC,11000 nM
same,GI50,ACHN renal,1370 nM
same,TGI,ACHN renal,2660 nM
same,GI50,BT-549 breast,1380 nM
same,TGI,BT-549 breast,2920 nM
same,GI50,CAKI-1 renal,2470 nM
same,TGI,CAKI-1 renal,10400 nM
same,GI50,CCRF-CEM leukemia,312 nM
same,TGI,CCRF-CEM leukemia,1150 nM
same,GI50,COLO 205 colon,1760 nM
same,TGI,COLO 205 colon,3660 nM
same,GI50,DU-145 prostate,1610 nM
same,TGI,DU-145 prostate,4290 nM
same,GI50,EKVX NSCLC,3860 nM
same,TGI,EKVX NSCLC,14800 nM
same,GI50,HCC-2998 colon,2570 nM
same,TGI,HCC-2998 colon,11300 nM
same,GI50,HCT-116 colon,1080 nM
same,TGI,HCT-116 colon,2270 nM
same,GI50,HCT-15 colon,948 nM
same,TGI,HCT-15 colon,2250 nM
same,GI50,HL-60(TB) leukemia,1620 nM
same,TGI,HL-60(TB) leukemia,10900 nM
same,GI50,HOP-62 NSCLC,5470 nM
same,TGI,HOP-62 NSCLC,18200 nM
same,GI50,HOP-92 NSCLC,1910 nM
same,TGI,HOP-92 NSCLC,4930 nM
same,GI50,HS 578T breast,3990 nM
same,TGI,HS 578T breast,20700 nM
same,GI50,HT29 colon,1120 nM
same,TGI,HT29 colon,2320 nM
same,GI50,IGROV1 ovarian,1890 nM
same,TGI,IGROV1 ovarian,3770 nM
same,GI50,K-562 leukemia,307 nM
same,TGI,K-562 leukemia,2140 nM
same,GI50,KM12 colon,2620 nM
same,TGI,KM12 colon,10800 nM
same,GI50,LOX IMVI melanoma,148 nM
same,TGI,LOX IMVI melanoma,289 nM
same,GI50,M14 melanoma,760 nM
same,TGI,M14 melanoma,2170 nM
same,GI50,MALME-3M melanoma,581 nM
same,TGI,MALME-3M melanoma,1980 nM
same,GI50,MCF7 breast,1830 nM
same,TGI,MCF7 breast,10100 nM
same,GI50,MDA-MB-231 breast,1800 nM
same,TGI,MDA-MB-231 breast,4550 nM
same,GI50,MDA-MB-435,1900 nM
same,TGI,MDA-MB-435,5650 nM
same,GI50,MDA-MB-468 breast,1130 nM
same,TGI,MDA-MB-468 breast,2850 nM
same,GI50,MOLT-4 leukemia,1210 nM
same,TGI,MOLT-4 leukemia,4100 nM
same,GI50,NCI-H226 lung,626 nM
same,TGI,NCI-H226 lung,2490 nM
same,GI50,NCI-H23 lung,1510 nM
same,TGI,NCI-H23 lung,3010 nM
same,GI50,NCI-H460 lung,1690 nM
same,TGI,NCI-H460 lung,4260 nM
same,GI50,NCI-H522 lung,120 nM
same,TGI,NCI-H522 lung,258 nM
same,GI50,NCI/ADR-RES ovarian,2100 nM
same,TGI,NCI/ADR-RES ovarian,6930 nM
same,GI50,OVCAR-3 ovarian,1270 nM
same,TGI,OVCAR-3 ovarian,2610 nM
same,GI50,OVCAR-4 ovarian,1680 nM
same,TGI,OVCAR-4 ovarian,5320 nM
same,GI50,OVCAR-5 ovarian,1770 nM
same,TGI,OVCAR-5 ovarian,3610 nM
same,GI50,OVCAR-8 ovarian,1750 nM
same,TGI,OVCAR-8 ovarian,4800 nM
same,GI50,PC-3 prostate,3010 nM
same,TGI,PC-3 prostate,14500 nM
same,GI50,RPMI-8226 leukemia,1440 nM
same,TGI,RPMI-8226 leukemia,4030 nM
same,GI50,RXF 393 renal,1240 nM
same,TGI,RXF 393 renal,2550 nM
same,GI50,SF-268 CNS,2770 nM
same,TGI,SF-268 CNS,10200 nM
same,GI50,SF-295 CNS,9610 nM
same,TGI,SF-295 CNS,21400 nM
same,GI50,SF-539 CNS,1440 nM
same,TGI,SF-539 CNS,2750 nM
same,GI50,SK-MEL-2 melanoma,2630 nM
same,TGI,SK-MEL-2 melanoma,9090 nM
same,GI50,SK-MEL-28 melanoma,2190 nM
same,TGI,SK-MEL-28 melanoma,4940 nM
same,GI50,SK-MEL-5 melanoma,2060 nM
same,TGI,SK-MEL-5 melanoma,5380 nM
same,GI50,SK-OV-3 ovarian,5220 nM
same,TGI,SK-OV-3 ovarian,17600 nM
same,GI50,SN12C renal,1140 nM
same,TGI,SN12C renal,2360 nM
same,GI50,SNB-19 CNS,5840 nM
same,TGI,SNB-19 CNS,18800 nM
same,GI50,SNB-75 CNS,4120 nM
same,TGI,SNB-75 CNS,15900 nM
same,GI50,SR leukemia,247 nM
same,TGI,SR leukemia,1360 nM
same,GI50,SW-620 colon,631 nM
same,TGI,SW-620 colon,1870 nM
same,GI50,T-47D breast,3760 nM
same,TGI,T-47D breast,16100 nM
same,GI50,TK-10 renal,2870 nM
same,TGI,TK-10 renal,9900 nM
same,GI50,U251 CNS,1520 nM
same,TGI,U251 CNS,3300 nM
same,GI50,UACC-257 melanoma,3650 nM
same,TGI,UACC-257 melanoma,15000 nM
same,GI50,UACC-62 melanoma,1700 nM
same,TGI,UACC-62 melanoma,4300 nM
same,GI50,UO-31 renal,2000 nM
same,TGI,UO-31 renal,8800 nM
